Data taken from patent US6211182A, “Imidazole compounds substituted with a six or seven membered heterocyclic ring containing two nitrogen atoms” (Schering Corporation, priority 1999, dated 2001).

System: mice
Assay: not given
Conditions: Yokoyama et al. 1993; cited from earlier work

Row | Structure (SMILES) | duration of each phase of convulsion | electroconvulsive threshold
1 | S=C(NC1CCCCC1)N1CCC(c2cnc[nH]2)CC1 [thioperamide] | decreased the duration of each phase of convulsion | raised the electroconvulsive threshold

System: rat
Assay: not given
Conditions: Clapham et al. 1993; cited from earlier work

Row | Structure (SMILES) | short-term memory and reversal learning
2 | S=C(NC1CCCCC1)N1CCC(c2cnc[nH]2)CC1 [thioperamide] | can improve short-term memory and reversal learning in the rat

Target: T1, H3 receptor (Cavia porcellus, UniProt Q9JI35)
T1 construct: The source of the H3 receptors in this experiment was guinea pig brain; from tissue; host or cells: guinea pig brain membranes
T1 sequence (Q9JI35 whole entry): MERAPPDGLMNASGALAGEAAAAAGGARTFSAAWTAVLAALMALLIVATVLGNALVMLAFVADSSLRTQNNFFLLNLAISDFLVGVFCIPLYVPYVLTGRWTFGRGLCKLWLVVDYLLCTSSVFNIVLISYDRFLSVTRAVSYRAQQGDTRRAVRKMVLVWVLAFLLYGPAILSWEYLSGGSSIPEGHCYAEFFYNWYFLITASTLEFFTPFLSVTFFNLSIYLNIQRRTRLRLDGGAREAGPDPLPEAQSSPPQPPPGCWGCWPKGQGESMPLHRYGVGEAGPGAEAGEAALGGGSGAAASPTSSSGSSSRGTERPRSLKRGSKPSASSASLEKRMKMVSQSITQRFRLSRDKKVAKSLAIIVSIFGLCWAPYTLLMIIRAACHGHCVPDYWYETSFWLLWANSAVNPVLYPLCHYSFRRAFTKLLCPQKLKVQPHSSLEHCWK
Assay: H3 Receptor Binding Assay (guinea pig brain membranes, [3H]R-α-methylhistamine or [3H]-N-methylhistamine)
Conditions: 3 nM radioligand, 30° C., 30 min
Procedure: Procedure for H3 Receptor Binding Assay
The source of the H3 receptors in this experiment was guinea pig brain. The animals used weighed 400-600 g. The tissue was homogenized using a Polytron in a solution of 50 mM Tris, pH 7.5. The final concentration of tissue in the homogenization buffer was 10% w/v. The homogenates were centrifuged at 1000×g for 10 min. in order to remove clumps of tissue and debris. The resulting supernatants were then centrifuged at 50,000×g for 20 min. in order to sediment the membranes, which were next washed 3 times in homogenization buffer (50,000×g for 20 min. each). The membranes were frozen and stored at -70° C. until needed.
All compounds to be tested were dissolved in DMSO and then diluted into the binding buffer (50 mM Tris, pH 7.5) such that the final concentration was 2 μg/mL with 0.1% DMSO. Membranes were then added (400 μg of protein) to the reaction tubes. The reaction was started by the addition of 3 nM [^3 H]R-α-methylhistamine (8.8 Ci/mmol) or [^3 H]-N-methylhistamine (80 Ci/mmol) and incubated at 30° C. for 30 min. Bound ligand was separated from unbound ligand by filtration, and the amount of radioactive ligand bound to the membranes was quantitated by liquid scintillation spectrometry. All incubations were performed in duplicate and the standard error was less than 10% in all instances.

Row | Structure (SMILES) | Ki [nM]
3 | O=C(NCCCCc1c[nH]cn1)C1CN(Cc2ccc(Cl)cc2)CCN1Cc1ccc(Cl)cc1 (stereo not drawn) | 20
4 | CCOC(=O)C1CNCCN1CCCCc1c[nH]cn1 (stereo not drawn) | 32
5 | CCOC(=O)C1CN(CCCCc2c[nH]cn2)CCN1Cc1ccc(Cl)cc1 (stereo not drawn) | 46
6 | O=C(NCCCCc1c[nH]cn1)C1CN(Cc2ccc(Cl)cc2)CCN1 (stereo not drawn) | 46
7 | O=C(NCCCCc1c[nH]cn1)C1CNCCN1Cc1ccc(Cl)cc1 (stereo not drawn) | 38
8 | O=C(Nc1cccc(Cl)c1)N1CCN(CCCCc2c[nH]cn2)CC1 | 6
9 | O=C(/C=C/c1cccnc1)N1CCN(CCCCc2c[nH]cn2)CC1 | 25
10 | O=C(NCCCCCc1c[nH]cn1)C1CNCCN1 (stereo not drawn) | 39
11 | Clc1ccc(CN2CCN(Cc3ccc(Cl)cc3)C(CCc3c[nH]cn3)C2)cc1 (stereo not drawn) | 45
12 | O=C(/C=C/c1ccccc1)N1CCN(CCCCc2c[nH]cn2)CC1 | 6
13 | O=C(Nc1ccc(C(F)(F)F)cc1)N1CCN(CCCCc2c[nH]cn2)CC1 | 14

Same assay, conditions: unit given as mM

Row | Structure (SMILES) | Ki [nM]
14 | CCOC(=O)C1CN(Cc2ccc(Cl)cc2)CCN1CCCCc1c[nH]cn1 (stereo not drawn) | 26
